In article PMC5807063 (Science (New York, N.Y.), 2017):

Experiments:
[1] = target: T1, purified HNE (human neutrophil elastase) (Homo sapiens, UniProt P08246); assay: Inhibition of purified human neutrophil elastase
T1 sequence (P08246 30-267): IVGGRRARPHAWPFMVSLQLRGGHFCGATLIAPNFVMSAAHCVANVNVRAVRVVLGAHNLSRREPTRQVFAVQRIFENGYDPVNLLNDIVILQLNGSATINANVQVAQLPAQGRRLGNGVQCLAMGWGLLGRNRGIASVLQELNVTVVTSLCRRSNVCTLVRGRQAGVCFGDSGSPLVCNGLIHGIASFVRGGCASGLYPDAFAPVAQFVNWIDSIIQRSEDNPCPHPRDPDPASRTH

HNE in CF patient sputum = target: T2, HNE in CF patient sputum (Homo sapiens, UniProt P08246); assay: HNE inhibition in CF patient sputum; conditions: sputum samples of CF patients
T2 sequence (P08246 30-267): T1 sequence (P08246 30-267)

Substance: BAY 85-8501 [compound 54]
- HNE inhibitory activity (in words) [1]: low IC50 values
- inhibitory activity in CF patient sputum (in words) (HNE in CF patient sputum): potencies diminished
